Measurements reported in US20060111385A1, “Novel 4-phenyl substituted tetrahydroisoquinolines and therapeutic use thereof” (priority 2004, published 2006).
Structures can show the parent of a compound that is named as a salt.

Tested on: not given
Details: not given
With `Cc1ccc(C2CN(C)Cc3c2ccc2ccoc32)cc1` (single isomer, unassigned) (as salt: maleate) the melting point was 190 to 191 °C.
`CN1Cc2c(ccc3ccoc23)C(c2ccccc2)C1` (single isomer, unassigned) (as salt: maleate) showed a melting point of 165 to 168 °C.
Work on `CN1Cc2c(ccc3ccoc23)C(c2ccc(F)cc2)C1` (stereo not shown) (as salt: hydrochloride) yielded a melting point of 242 to 257 °C.
Work on `Cc1ccc(C2CN(C)Cc3c2ccc2ccoc32)cc1` (single isomer, unassigned) (as salt: hydrochloride) yielded a melting point of 240 to 246 °C.
For `CN1Cc2c(ccc3ccoc23)C(c2cc(F)cc(F)c2)C1` (stereo not shown) (as salt: hydrochloride), the melting point was 233 to 236 °C.
Work on `CN1Cc2c(ccc3ccoc23)C(c2ccccc2)C1` (single isomer, unassigned) yielded a melting point of 81 to 83 °C.

Tested on: dopamine transporter protein over the norepinephrine transporter protein
Details: selectivity for dopamine transporter protein over norepinephrine transporter protein; cited from earlier work
In the case of `COC(=O)C(c1ccccc1)C1CCCCN1` (stereo not shown) [Methylphenidate, methylphenidate], the “DAT/NET Ki ratio” value is listed as 0.1.
